Assay [1] has as its target Somatostatin receptor type 4 (Homo sapiens, UniProt P31391). The experiment in a line: SSTR4 I-125 Somatostatin Competition Binding Assay for Selectivity Versus SSTR4.
Procedure: Then 1 μg of SSTR4 membranes in 50 μL assay buffer are added per well. The Plate is incubated for 60 minutes at room temperature. […] The contents of the assay plate are transferred to filters with a TomTech harvester and washed 5 times with 20 mM HEPES, 100 mM NaCl. […] The scintillator sheets are melted to filters using a heat block. The filters are then read in a MicroBeta scintillation counter. Binding Ki curves are generated using Activity Base for Screening Data Management and the results are reported as pIC50.
Assay [2] deals with Somatostatin receptor type 1 (Homo sapiens, UniProt P30872). The experiment in a line: SSTR1 I-125 Somatostatin Competition Binding Assay for Selectivity Versus SSTR1.
Procedure: Then 10 μg of SSTR1 membranes in 50 μL assay buffer are added per well. The plate is incubated for 60 minutes at room temperature. […] The contents of the assay plate are transferred to filters with a TomTech harvester and washed 5 times with 20 mM HEPES, 100 mM NaCl. […] The scintillator sheets are melted to the filters using a heat block. The filters are then read in a MicroBeta scintillation counter. Binding Ki curves are generated using Activity Base for Screening Data Management and the results are reported as pIC50.

This note sets out measurements from BindingDB's records for patent US20250188037 (Takeda Pharmaceutical, 2025).

A value given as a limit tells only on which side of the number the result lay.

Sequence of Somatostatin receptor type 1 (P30872 whole entry): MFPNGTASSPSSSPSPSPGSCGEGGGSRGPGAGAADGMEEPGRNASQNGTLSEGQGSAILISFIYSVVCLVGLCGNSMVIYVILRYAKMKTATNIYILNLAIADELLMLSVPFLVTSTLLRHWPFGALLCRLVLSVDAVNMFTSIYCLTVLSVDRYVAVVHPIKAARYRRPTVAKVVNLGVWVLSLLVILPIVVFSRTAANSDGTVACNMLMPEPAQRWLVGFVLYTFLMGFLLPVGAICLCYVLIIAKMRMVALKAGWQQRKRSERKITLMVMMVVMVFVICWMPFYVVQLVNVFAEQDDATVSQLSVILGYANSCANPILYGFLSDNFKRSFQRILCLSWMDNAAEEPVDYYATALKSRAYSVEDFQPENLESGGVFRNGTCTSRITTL
Sequence of Somatostatin receptor type 4 (P31391 whole entry): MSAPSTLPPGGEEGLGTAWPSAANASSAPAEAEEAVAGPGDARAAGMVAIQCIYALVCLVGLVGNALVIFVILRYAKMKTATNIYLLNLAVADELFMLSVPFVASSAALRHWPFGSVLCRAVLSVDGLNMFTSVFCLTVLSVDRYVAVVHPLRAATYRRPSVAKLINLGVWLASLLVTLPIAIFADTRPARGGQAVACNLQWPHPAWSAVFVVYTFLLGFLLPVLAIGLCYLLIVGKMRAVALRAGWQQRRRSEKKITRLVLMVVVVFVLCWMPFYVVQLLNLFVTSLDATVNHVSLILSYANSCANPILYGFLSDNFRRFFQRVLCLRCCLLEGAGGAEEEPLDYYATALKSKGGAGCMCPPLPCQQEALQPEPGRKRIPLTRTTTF

What is called IC50 is the midpoint of a concentration-inhibition curve. A low value points to greater potency. Take `O=C(N[C@H]1CCNC[C@@H]1F)C1(Cc2cccc(F)c2)CC1` [US20250188037, Example 44]: the results for the IC50 in assay [1] and in assay [2] were 87.1 nM and > 50100 nM, respectively.
